Structures can show the parent of a compound that is named as a salt. Where two headings read alike, the source gives them in different places.
What was measured:
[1] = Hygroscopicity / hygroscopic stability; assay type: physicochemical
[2] = for SOLUBILITY IN WATER: Aqueous solubility of ziprasidone mesylate polymorphs, ambient temperature (22-25° C.), equilibration 12-13 days
Description: (§1) The relative thermodynamic stability of the three ziprasidone mesylate hydrated crystal forms was determined in a series of bridging experiments where mixtures of the crystal forms were allowed to equilibrate. For the bridging experiments, 200 mg samples were allowed to equilibrate in water (4 mL) at ambient temperature (22-25° C.). Two samples each of 90/10 (w/w) and 10/90 (w/w) mixtures of the two different identified polymorphs of ziprasidone mesylate (prism vs. dihydrate (lath), prism vs. dihydrate (needle), dihydrate (needle) vs. dihydrate (lath)) were evaluated. After equilibration (12-13 days), the solids were evaluated for polymorph changes and the supernatants were assayed by HPLC to determine solubility.

[3] = as stated by U.S. Pat. No. 5,312,925; cited from earlier work
[4] = Relative thermodynamic stability of the crystal forms in water (bridging experiments); assay type: physicochemical; settings: for thermodynamic stability in an aqueous medium (words): ambient conditions/temperature, among the four ziprasidone mesylate forms, methanesulfonate trihydrate
physchem = settings: water
Description: as §1

Compound: O=C1Cc2cc(CCN3CCN(c4nsc5ccccc45)CC3)c(Cl)cc2N1 [5-[2-[4-(1,2-benzisothiazol-3-yl)-1-piperazinyl]ethyl]-6-chloro-1,3-dihydro-2H-indol-2-one methanesulfonate anhydrous]
- hygroscopicity when exposed to air ([1]; exposed to air (humidity)): hygroscopic when exposed to air (humidity)
- SOLUBILITY IN WATER ([2]; listed as anhydrous): 1.27 mg/mL

Compound: O=C1Cc2cc(CCN3CCN(c4nsc5ccccc45)CC3)c(Cl)cc2N1 [ziprasidone hydrochloride monohydrate, reference compound]
- hygroscopic stability [3]: substantially hygroscopically stable
- aqueous solubility ([2]; background statement): low aqueous solubility
- solubility in water ([2]; in water at ambient temperature, comparator salt): 0.08 mg/mL

Compound: O=C1Cc2cc(CCN3CCN(c4nsc5ccccc45)CC3)c(Cl)cc2N1 [5-[2-[4-(1-benzisothiazol-3-yl)-1-piperazinyl]ethyl]-6-chloro-1,3-dihydro-2H-indol-2-one methanesulfonate dihydrate (needle crystals)]
- SOLUBILITY IN WATER ([2]; listed as dihydrate (needle)): 1.10 mg/mL

Compound: CS(=O)(=O)O.O.O.O.O=C1Cc2cc(CCN3CCN(c4nsc5ccccc45)CC3)c(Cl)cc2N1 [ziprasidone mesylate trihydrate, 5-[2-[4-(1,2-benzisothiazol-3-yl)-1-piperazinyl]ethyl]-6-chloro-1,3-dihydro-2H-indol-2-one methanesulfonate trihydrate]
- thermodynamic stability in an aqueous medium (words) ([4]; listed as mesylate trihydrate): most thermodynamically stable
- thermodynamic stability in an aqueous medium (words) [4]: most thermodynamically stable form of the four ziprasidone mesylate forms
- thermodynamic stability relative to the dihydrate forms ([4]; bridging experiments, 200 mg in water (4 mL), 22-25° C., 12-13 days): thermodynamically favored over the dihydrate forms
- hygroscopic stability [1]: possesses hygroscopic stability
- aqueous solubility relative to ziprasidone hydrochloride monohydrate ([2]; compared with hydrochloride monohydrate): significantly greater aqueous solubility than the hydrochloride monohydrate
- solubility (physchem): 730 µg/mL

Compound: O=C1Cc2cc(CCN3CCN(c4nsc5ccccc45)CC3)c(Cl)cc2N1 [5-[2-[4-(1-benzisothiazol-3-yl)-1-piperazinyl]ethyl]-6-chloro-1,3-dihydro-2H-indol-2-one methanesulfonate dihydrate (lath crystals)]
- SOLUBILITY IN WATER ([2]; listed as dihydrate (lath)): 1.11 mg/mL
